Measurements as given in patent publication US20250270246A1, “LINCOSAMIDES AND USES THEREOF” (President and Fellows of Harvard College, priority 2022, published 2025).
≈ marks a conversion by molar mass, not a printed value. Where “and” joins values, the source holds several entries; their conditions need not be identical. Equal values may be shown once.

Legend:
[1] = from C=CCC[C@@H](NC(=O)[C@@H]1[C@@H]2OCC[C@@H](CC(C)C)C[C@H]2CN1C(=O)OC(C)(C)C)[C@H]1O[C@H](SCC=C)[C@H](O)[C@@H](O)[C@H]1O; rcm bond; 10-membered ring; Grubbs II (20 mol%)/benzoquinone; then HCl/MeOH; toluene; 0.2 mM; 0.33 h; 3 steps
H. influenzae ATCC 49247 = experiment: MIC by broth microdilution (CLSI); type: cell-based; conditions: Haemophilus influenzae, ATCC49247; ATCC 49247; 24 h incubation; read-out: MIC H. influenzae ATCC 49247
Method in brief: (§1)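 Lowest concentration (μg/mL) without visible bacterial growth after 24 h was taken as MIC, using CLSI microdilution at 5×10^5 CFU/mL in CaMHB. Chelex 100 treatment of the broth applied only to P. aeruginosa.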

[2] = tested on: S. aureus ATCC 29213 (HAV#001); experiment: MIC by broth microdilution (CLSI); type: cell-based; conditions: Staphylococcus aureus, ATCC29213, 24 h, HAV#001, ATCC 29213; CaMHB, 24 h incubation; read-out: MIC S. aureus ATCC 29213
Method in brief: as §1

[3] = tested on: E. faecalis ATCC 29212 (HAV#005); experiment: MIC by broth microdilution (CLSI); type: cell-based; conditions: Enterococcus faecalis, ATCC29212, 24 h, HAV#005, ATCC 29212; CaMHB, 24 h incubation; read-out: MIC E. faecalis ATCC 29212
Method in brief: as §1

E. faecium JMI-990536 = experiment: MIC by broth microdilution (CLSI); type: cell-based; conditions: Enterococcus faecium, JMI990536, 24 h, JMI-990536; CaMHB, 24 h incubation; read-out: MIC E. faecium JMI-990536
Method in brief: as §1

E. coli lptD mutant = experiment: MIC by broth microdilution (CLSI); type: cell-based; conditions: Escherichia coli, 24 h, read-out: MIC E. coli lptD mutant, lptD mutant / ΔlptD mutant; CaMHB, 24 h incubation
Method in brief: as §1

S. pneumoniae c-ermB = experiment: MIC by broth microdilution (CLSI); type: cell-based; conditions: Streptococcus pneumoniae, 24 h, read-out: MIC S. pneumoniae c-ermB
Method in brief: as §1

S. aureus MMX 3035 = experiment: MIC by broth microdilution (CLSI); type: cell-based; conditions: Staphylococcus aureus, MMX3035, 24 h, MMX 3035; CaMHB, 24 h incubation; read-out: MIC S. aureus MMX 3035
Method in brief: as §1

K. pneumoniae JMI-991193 = experiment: MIC by broth microdilution (CLSI); type: cell-based; conditions: Klebsiella pneumoniae, JMI991193, 24 h, JMI-991193; CaMHB, 24 h incubation; read-out: MIC K. pneumoniae JMI-991193
Method in brief: as §1

[4] = tested on: M. catarrhalis ATCC 25238; experiment: MIC by broth microdilution (CLSI); type: cell-based; conditions: Moraxella catarrhalis, ATCC25238, 24 h incubation
Method in brief: as §1

S. aureus Clinical (cfr) = experiment: MIC by broth microdilution (CLSI); type: cell-based; conditions: Staphylococcus aureus, 24 h, Clinical (cfr); CaMHB, 24 h incubation; read-out: MIC S. aureus Clinical (cfr)
Method in brief: as §1

[5] = tested on: E. coli ATCC 25922 (HAV#006); experiment: MIC by broth microdilution (CLSI); type: cell-based; conditions: Escherichia coli, ATCC25922, 24 h, HAV#006, ATCC 25922; CaMHB, 24 h incubation; read-out: MIC E. coli ATCC 25922
Method in brief: as §1

[6] = tested on: P. aeruginosa ATCC 27853 (HAV#009); experiment: MIC by broth microdilution (CLSI), Chelex 100-treated broth; type: cell-based; conditions: Pseudomonas aeruginosa, ATCC27853; HAV#009, ATCC 27853; CaMHB pre-treated with Chelex 100 ion exchange resin, 24 h
Method: Minimum inhibitory concentrations (MICs) were determined by the broth microdilution method following the Clinical and Laboratory Standards Institute (CLSI) guidelines. Test organisms consisted of standard reference strains from the American Type Culture Collection (ATCC; Manassa, VA, USA) and clinical isolates obtained from JMI Laboratories Inc. (North Liberty, IA, USA), Micromyx repository (MMX; Kalamazoo, MI, USA), and Massachusetts Eye and Ear Hospital (Boston, USA). Before the start of the MIC experiment, standard and test compound stock solutions were prepared in dimethyl sulfoxide (DMSO, Aldrich D2650) at a stock concentration of 2,560 μg/mL. The compound concentration range typically employed for each experiment was 64-0.06 μg/mL (2.5% final DMSO concentration). Iboxamycin was used as a comparator in all experiments. All bacterial strains were sub-cultured on blood agar plates (tryptic soy agar with 5% sheep blood, Hardy Diagnostics) and incubated overnight at 35° C. Organisms were suspended in cation-adjusted Mueller-Hinton broth (CaMHB, BD 212322) and optical density was adjusted to 0.5 McFarland standard. Suspensions were further diluted to obtain a final inoculum of 5×10^5 CFU/mL for broth microdilution experiments. The minimum concentration of compound required to inhibit visible bacterial growth after 24 h of incubation was recorded as the MIC in μg/mL. MICs for P. aeruginosa were recorded in cation-adjusted Mueller-Hinton broth which had been pre-treated with Chelex 100 ion exchange resin according to procedures reported in Ito et al. Antimicrob Agents Chemother (2016) 60 (12), 7396-7401.

SMILES	ring closure, yield after HPLC [1]	MIC (H. influenzae ATCC 49247)	MIC [2]	MIC [3]	MIC (E. faecium JMI-990536)	MIC (E. coli lptD mutant)	MIC (S. pneumoniae c-ermB)	MIC (S. aureus MMX 3035)	MIC (K. pneumoniae JMI-991193)	MIC [4]	MIC (S. aureus Clinical (cfr))	MIC [5]	MIC [6]
CC(C)C[C@@H]1CCO[C@@H]2[C@@H](C1)CN(C(=O)OC(C)(C)C)[C@@H]2C(=O)N[C@@H]1CCC=CCS[C@H]2O[C@H]1[C@H](O)[C@H](O)[C@H]2O	1.3% and 1.7%												
CC(C)C[C@@H]1CCO[C@@H]2[C@H](CN[C@@H]2C(=O)N[C@H]2[C@H]3O[C@H](SCCCC/C=C/[C@@H]2C)[C@H](O)[C@@H](O)[C@H]3O)C1 [FSA1610014, (4S,5aS,8S,8aR)-4-isobutyl-N-((1R,9S,10R,11R,12R,13S,14R,E)-12,13,14-trihydroxy-9-methyl-15-oxa-2-thiabicyclo[9.3.1]pentadec-7-en-10-yl) octahydro-2H-oxepino[2,3-c]pyrrole-8-carboxamide]		0.25 µg/mL (≈ 0.475 µM)	0.5 µg/mL (≈ 0.949 µM)	2 µg/mL (≈ 3.8 µM)	32 µg/mL (≈ 60.8 µM)	16 µg/mL (≈ 30.4 µM)	16 µg/mL (≈ 30.4 µM)	32 µg/mL (≈ 60.8 µM)	> 32 µg/mL	16 µg/mL (≈ 30.4 µM)	32 µg/mL (≈ 60.8 µM)	> 32 µg/mL	32 µg/mL (≈ 60.8 µM)
CC(C)C[C@@H]1CCO[C@@H]2[C@H](CN[C@@H]2C(=O)N[C@H]2[C@H]3O[C@H](SCCCC/C=C\[C@H]2C)[C@H](O)[C@@H](O)[C@H]3O)C1 [FSA1610015, (4S,5aS,8S,8aR)-4-isobutyl-N-((1R,9R,10R,11R,12R,13S,14R,Z)-12,13,14-trihydroxy-9-methyl-15-oxa-2-thiabicyclo[9.3.1]pentadec-7-en-10-yl) octahydro-2H-oxepino[2,3-c]pyrrole-8-carboxamide]		≤ 0.06 µg/mL	0.125 µg/mL (≈ 0.237 µM)	0.25 µg/mL (≈ 0.475 µM)	1 µg/mL (≈ 1.9 µM)	1 µg/mL (≈ 1.9 µM)	4 µg/mL (≈ 7.59 µM)	8 µg/mL (≈ 15.2 µM)	32 µg/mL (≈ 60.8 µM)	1 µg/mL (≈ 1.9 µM)	2 µg/mL (≈ 3.8 µM)	8 µg/mL (≈ 15.2 µM)	4 µg/mL (≈ 7.59 µM)
CC(C)C[C@@H]1CCO[C@@H]2[C@H](CN[C@@H]2C(=O)N[C@H]2[C@H]3O[C@H](SCCCC/C=C/[C@H]2C)[C@H](O)[C@@H](O)[C@H]3O)C1 [FSA1610016, (4S,5aS,8S,8aR)-4-isobutyl-N-((1R,9R,10R,11R,12R,13S,14R,E)-12,13,14-trihydroxy-9-methyl-15-oxa-2-thiabicyclo[9.3.1]pentadec-7-en-10-yl) octahydro-2H-oxepino[2,3-c]pyrrole-8-carboxamide]		≤ 0.06 µg/mL	0.125 µg/mL (≈ 0.237 µM)	0.25 µg/mL (≈ 0.475 µM)	4 µg/mL (≈ 7.59 µM)	2 µg/mL (≈ 3.8 µM)	8 µg/mL (≈ 15.2 µM)	16 µg/mL (≈ 30.4 µM)	32 µg/mL (≈ 60.8 µM)	2 µg/mL (≈ 3.8 µM)	16 µg/mL (≈ 30.4 µM)	16 µg/mL (≈ 30.4 µM)	4 µg/mL (≈ 7.59 µM)
